Laboratory results published in patent US20090005375A1, “ACETYL COENZYME A CARBOXYLASE INHIBITORS” (priority 2007, published 2009).

Columns and labels:
[1] = target: T1, Human ACC1 (Homo sapiens, UniProt Q13085); experiment: In vitro enzymatic ACC activity assay (malachite green), ACC1; assay type: biochemical; details: recombinant His-tagged enzyme, absorbance at 620 nm
T1 construct: made in house; host or cells: SF-9 insect cells (baculovirus, pFAST-BacHTc)
Procedure: (§1) Provided in Example A is an in vitro enzymatic ACC activity assay for activity against ACC. The binding affinity of the test compound to ACC1 or ACC2 is determined by the changes in absorbance (at 620 nm); […]. It should be noted that a variety of other expression systems and hosts are also suitable for the expression of ACC, as would be readily appreciated by one of skill in the art.
Human ACC1 cDNA was amplified from human liver cDNA by polymerase chain reaction using primers; 5′[…]3′ (SEQ ID NO: 1) and 5′[…]3′ (SEQ ID NO: 2). The amplified DNA fragment was digested by restriction enzyme SalI and NotI, and cloned into pFAST-BacHTc (Invitrogen). This plasmid DNA was used for preparation of recombinant vaculovirus with BAC-TO-BAC Baculovirus Expression System (Invitrogen).
SF-9 cells were infected with the vaculovirus and cultured at 27° C. for 3 days. Harvested cells were homogenized in buffer A (25 mM HEPES (pH7.5), 130 mM NaCl, 1 mM EDTA, 25 mM sodium glycerophosphate, 1 mM sodium orthovanadate, 10% glycerol, complete protease inhibitor), and subjected to ultracentrifuge at 185700×g for 50 min at 4° C. ACC1 protein with 6×His-tag at the N-terminal was purified from the supernatant using Ni-NTA Super Flow Gel (QIAGEN). Eluted protein was dialysed against buffer B (50 mM HEPES (pH 7.5), 300 mM NaCl, 10 mM MgCl2, 10 mM tripotassium citrate, 2 mM dithiothreitol) and concentrated using Vivaspin20 ultrafiltration tube (Sartorius).
(§2) Malachite green solution was prepared by mixing 100 mL of solution A (0.12% malachite green in 5NH2SO4), 25 mL of solution B (7.5% ammonium molybdate) and 2 mL of solution C (11% TWEEN-20).
(§3) ACC1 was diluted to 8 μg/mL in reaction buffer (50 mM HEPES pH7.5, 10 mM MgCl2, 10 mM tripotassium citrate, 2 mM DTT, 0.75 mg/mL fatty acid free BSA) and 10 μL diluted enzyme solution was pored into each well of 384-well clear bottom plate. Test compound was diluted in the reaction buffer and 5 μL of the compound solution was added into each well, and the mixture was incubated at 30° C. for 60 minutes. Reaction was initiated by addition of 5 μL substrate solution (50 mM KHCO3, 200 μM ATP, 200 μM acetyl-CoA). After incubation at 30° C. for 20 minutes, reaction was terminated by addition of 5 μL malachite green solution and absorbance at 620 nm was measured.
(§4) Percent activity at each concentration of compound was calculated from the following equation: […]
(§5) Data were subjected to nonlinear regression analysis using GraphPad Prism Software (GraphPad Software Inc.) to obtain IC50 values.

[2] = target: T2, Human ACC2 (Homo sapiens, UniProt O00763); experiment: In vitro enzymatic ACC activity assay (malachite green), ACC2; assay type: biochemical; details: recombinant His-tagged enzyme, absorbance at 620 nm
T2 construct: made in house; host or cells: SF-9 insect cells (baculovirus, pFAST-BacHTa)
Procedure: as §1
Human ACC2 cDNA except coding region for mitochondria localization sequence was amplified from human skeletal muscle cDNA by polymerase chain reaction using primers; 5′[…]3′ (SEQ ID NO: 3) and 5′[…]3′ (SEQ ID NO: 4). The amplified DNA fragment was digested by SalI and AflII, and cloned into pFAST-BacHTa (Invitrogen). Preparation of recombinant vaculovirus, infection of the virus to SF-9 cells and purification of recombinant ACC2 protein with 6×His-tag at the N-terminal were performed in the same method as described above.
as §2, §3
ACC2 was diluted to 6.4 μg/mL in reaction buffer, and the activity was measured by the same method as described for ACC1.
as §4, §5

T2 sequence (O00763 117-2458 limits assumed): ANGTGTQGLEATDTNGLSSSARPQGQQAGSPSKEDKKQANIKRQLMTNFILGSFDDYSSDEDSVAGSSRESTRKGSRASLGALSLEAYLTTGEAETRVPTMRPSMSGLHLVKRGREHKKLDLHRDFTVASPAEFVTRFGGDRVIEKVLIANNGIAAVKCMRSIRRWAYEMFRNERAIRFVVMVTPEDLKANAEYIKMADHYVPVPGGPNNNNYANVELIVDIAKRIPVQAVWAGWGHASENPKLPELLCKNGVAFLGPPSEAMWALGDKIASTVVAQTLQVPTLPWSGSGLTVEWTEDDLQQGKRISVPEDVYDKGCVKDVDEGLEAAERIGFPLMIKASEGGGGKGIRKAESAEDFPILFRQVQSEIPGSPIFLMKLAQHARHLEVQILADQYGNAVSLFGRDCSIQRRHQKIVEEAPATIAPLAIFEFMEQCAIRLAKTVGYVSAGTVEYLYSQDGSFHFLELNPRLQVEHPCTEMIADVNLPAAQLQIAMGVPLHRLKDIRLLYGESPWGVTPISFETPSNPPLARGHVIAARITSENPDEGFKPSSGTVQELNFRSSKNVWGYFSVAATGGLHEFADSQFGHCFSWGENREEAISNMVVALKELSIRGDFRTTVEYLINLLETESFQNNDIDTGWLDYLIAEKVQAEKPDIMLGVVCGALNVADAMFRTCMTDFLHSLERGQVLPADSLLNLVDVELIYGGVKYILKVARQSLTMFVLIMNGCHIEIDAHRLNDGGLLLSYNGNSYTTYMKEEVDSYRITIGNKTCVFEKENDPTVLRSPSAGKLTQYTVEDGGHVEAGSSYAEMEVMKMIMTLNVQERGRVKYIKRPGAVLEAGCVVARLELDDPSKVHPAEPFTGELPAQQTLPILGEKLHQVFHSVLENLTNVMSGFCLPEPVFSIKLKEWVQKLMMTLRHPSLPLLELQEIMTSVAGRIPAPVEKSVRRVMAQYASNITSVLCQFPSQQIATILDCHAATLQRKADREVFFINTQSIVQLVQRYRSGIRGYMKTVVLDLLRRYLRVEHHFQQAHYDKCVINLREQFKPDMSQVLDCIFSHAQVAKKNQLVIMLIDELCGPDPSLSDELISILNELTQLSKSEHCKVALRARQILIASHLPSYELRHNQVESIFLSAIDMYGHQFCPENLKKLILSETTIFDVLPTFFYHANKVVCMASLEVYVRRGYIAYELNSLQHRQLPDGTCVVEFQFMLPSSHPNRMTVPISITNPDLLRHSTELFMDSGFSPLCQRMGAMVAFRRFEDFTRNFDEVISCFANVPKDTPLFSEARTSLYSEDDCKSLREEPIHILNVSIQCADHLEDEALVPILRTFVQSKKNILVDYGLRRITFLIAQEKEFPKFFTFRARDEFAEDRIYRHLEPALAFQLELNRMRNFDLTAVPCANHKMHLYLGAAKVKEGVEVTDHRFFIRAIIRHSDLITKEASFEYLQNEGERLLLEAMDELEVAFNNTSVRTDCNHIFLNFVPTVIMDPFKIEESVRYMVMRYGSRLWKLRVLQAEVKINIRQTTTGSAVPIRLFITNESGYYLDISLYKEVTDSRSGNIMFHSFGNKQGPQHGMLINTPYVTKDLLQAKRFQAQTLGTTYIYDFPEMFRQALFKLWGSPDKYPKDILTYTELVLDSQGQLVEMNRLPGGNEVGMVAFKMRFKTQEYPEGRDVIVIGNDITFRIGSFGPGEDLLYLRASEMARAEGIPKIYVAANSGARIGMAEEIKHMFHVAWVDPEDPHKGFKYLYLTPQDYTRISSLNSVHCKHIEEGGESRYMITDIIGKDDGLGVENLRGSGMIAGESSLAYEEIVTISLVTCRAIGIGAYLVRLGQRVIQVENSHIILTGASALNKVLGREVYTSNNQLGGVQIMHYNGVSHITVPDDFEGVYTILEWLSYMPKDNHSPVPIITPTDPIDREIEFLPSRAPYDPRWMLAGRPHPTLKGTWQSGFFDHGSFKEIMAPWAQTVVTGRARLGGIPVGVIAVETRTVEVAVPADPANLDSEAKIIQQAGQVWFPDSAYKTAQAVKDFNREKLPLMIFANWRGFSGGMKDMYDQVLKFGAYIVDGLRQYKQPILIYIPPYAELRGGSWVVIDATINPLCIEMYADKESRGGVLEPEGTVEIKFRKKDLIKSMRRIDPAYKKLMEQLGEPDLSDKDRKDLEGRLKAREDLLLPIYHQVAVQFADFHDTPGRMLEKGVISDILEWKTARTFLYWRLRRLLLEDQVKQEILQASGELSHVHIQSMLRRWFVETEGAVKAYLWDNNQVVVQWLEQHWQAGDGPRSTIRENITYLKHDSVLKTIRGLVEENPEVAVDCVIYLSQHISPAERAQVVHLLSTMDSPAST

| SMILES | IC50 [1] [µM] | IC50 [2] [µM] |
| --- | --- | --- |
| CCNC(=O)Nc1sc2ccccc2c1C(=O)N1CCN(S(=O)(=O)c2ccccc2C#N)CC1 [Example 2, 1-(3-(4-(2-cyanophenylsulfonyl)piperazine-1-carbonyl)benzo[b]thiophen-2-yl)-3-ethylurea] | > 50 | > 50 |
| CCNC(=O)Nc1sc2ccccc2c1C(=O)N1CCN(S(=O)(=O)c2ccccc2)CC1 [Example 3, ethyl-3-(3-(4-(phenylsulfonyl)piperazine-1-carbonyl)benzo[b]thiophen-2-yl)urea] | > 50 | > 50 |
| CCNC(=O)Nc1sc2ccccc2c1C(=O)N1CCN(S(=O)(=O)c2ccc3c(c2)OCO3)CC1 [Example 4, 1-(3-(4-(benzo[d][1,3]dioxol-5-ylsulfonyl)piperazine-1-carbonyl)benzo[b]thiophen-2-yl)-3-ethylurea] | > 50 | 5 to 50 |
| CCNC(=O)Nc1sc2ccccc2c1C(=O)N1CCN(S(=O)(=O)c2ccc3nsnc3c2)CC1 [Example 6, 1-(3-(4-(benzo[c][1,2,5]thiadiazol-5-ylsulfonyl)piperazine-1-carbonyl)benzo[b]thiophen-2-yl)-3-ethylurea] | > 50 | > 50 |
| CCNC(=O)Nc1sc2ccccc2c1C(=O)N1CCN(S(=O)(=O)c2cccc(OC)c2)CC1 [Example 7, ethyl-3-(3-(4-(3-methoxyphenylsulfonyl)piperazine-1-carbonyl)benzo[b]thiophen-2-yl)urea] | > 50 | < 5 |
| CCNC(=O)Nc1sc2ccccc2c1C(=O)N1CCN(S(=O)(=O)c2cccc(-c3csc(C)n3)c2)CC1 [Example 10, ethyl-3-(3-(4-(3-(2-methylthiazol-4-yl)phenylsulfonyl)piperazine-1-carbonyl)benzo[b]thiophen-2-yl)urea] | > 50 | 5 to 50 |
| CCNC(=O)Nc1sc2ccccc2c1C(=O)N1CCN(S(=O)(=O)c2cccc(OC(F)(F)F)c2)CC1 [Example 15, ethyl-3-(3-(4-(3-(trifluoromethoxy)phenylsulfonyl)piperazine-1-carbonyl)benzo[f]thiophen-2-yl)urea] | > 50 | > 50 |
| CCNC(=O)Nc1sc2ccccc2c1C(=O)N1CCN(S(=O)(=O)c2cccc([N+](=O)[O-])c2)CC1 [Example 16, ethyl-3-(3-(4-(3-nitrophenylsulfonyl)piperazine-1-carbonyl)benzo[b]thiophen-2-yl)urea] | > 50 | > 50 |
| CCNC(=O)Nc1sc2ccccc2c1C(=O)N1CCN(S(=O)(=O)c2ccc(N3CCCC3=O)cc2)CC1 [Example 22, ethyl-3-(3-(4-(4-(2-oxopyrrolidin-1-yl)phenylsulfonyl)piperazine-1-carbonyl)benzo[b]thiophen-2-yl)urea] | > 50 | < 5 |
| CCNC(=O)Nc1sc2ccccc2c1C(=O)N1CCN(S(=O)(=O)CCC(=O)OCC)CC1 [Example 25, Ethyl 3-(4-(2-(3-ethylureido)benzo[b]thiophene-3-carbonyl)piperazin-1-ylsulfonyl)propanoate] | 5 to 50 | 5 to 50 |

Results, then the molecule that gave them:

| IC50 [1] [µM] | IC50 [2] [µM] | SMILES |
| --- | --- | --- |
| 5 to 50 | 5 to 50 | CCNC(=O)Nc1sc2ccccc2c1C(=O)N1CCN(S(=O)(=O)c2cccc(S(C)(=O)=O)c2)CC1 [Example 5, ethyl-3-(3-(4-(3-(methylsulfonyl)phenylsulfonyl)piperazine-1-carbonyl)benzo[b]thiophen-2-yl)urea] |
| 5 to 50 | < 5 | CCNC(=O)Nc1sc2ccccc2c1C(=O)N1CCN(S(=O)(=O)c2cccc(NC(C)=O)c2)CC1 [Example 8, N-(3-(4-(2-(3-ethylureido)benzo[b]thiophene-3-carbonyl)piperazin-1-ylsulfonyl)phenyl)acetamide] |
| < 5 | < 5 | CCNC(=O)Nc1sc2ccccc2c1C(=O)N1CCN(S(=O)(=O)c2ccc(Cl)c(S(N)(=O)=O)c2)CC1 [Example 9, 2-chloro-5-(4-(2-(3-ethylureido)benzo[b]thiophene-3-carbonyl)piperazin-1-ylsulfonyl)benzenesulfonamide] |
| 5 to 50 | 5 to 50 | CCNC(=O)Nc1sc2ccccc2c1C(=O)N1CCN(S(=O)(=O)c2cccc(-c3nnc(C)o3)c2)CC1 [Example 11, ethyl-3-(3-(4-(3-(5-methyl-1,3,4-oxadiazol-2-yl)phenylsulfonyl)piperazine-1-carbonyl)benzo[b]thiophen-2-yl)urea] |
| 5 to 50 | < 5 | CCNC(=O)Nc1sc2ccccc2c1C(=O)N1CCN(S(=O)(=O)c2cccc(-c3ccnc(C)n3)c2)CC1 [Example 12, ethyl-3-(3-(4-(3-(2-methylpyrimidin-4-yl)phenylsulfonyl)piperazine-1-carbonyl)benzo[b]thiophen-2-yl)urea] |
| < 5 | < 5 | CCNC(=O)Nc1sc2ccccc2c1C(=O)N1CCN(S(=O)(=O)c2cccc(-c3noc(C)n3)c2)CC1 [Example 13, ethyl-3-(3-(4-(3-(5-methyl-1,2,4-oxadiazol-3-yl)phenylsulfonyl)piperazine-1-carbonyl)benzo[b]thiophen-2-yl)urea] |
| < 5 | < 5 | CCNC(=O)Nc1sc2ccccc2c1C(=O)N1CCN(S(=O)(=O)c2ccc(N3CCOCC3)nc2)CC1 [Example 14, ethyl-3-(3-(4-(6-morpholinopyridin-3-ylsulfonyl)piperazine-1-carbonyl)benzo[b]thiophen-2-yl)urea] |
| 5 to 50 | 5 to 50 | CCNC(=O)Nc1sc2ccccc2c1C(=O)N1CCN(S(=O)(=O)C2CCS(=O)(=O)C2)CC1 (stereo not drawn) [Example 17, ethyl-3-(3-(4-(1,1-dioxotetrahydrothiophen-3-ylsulfonyl)piperazine-1-carbonyl)benzo[b]thiophen-2-yl)urea] |
| < 5 | < 5 | CCNC(=O)Nc1sc2ccccc2c1C(=O)N1CCN(S(=O)(=O)c2ccc3c(c2)OCCCO3)CC1 [Example 18, 1-(3-(4-(3,4-dihydro-2H-benzo[b][1,4]dioxepin-7-ylsulfonyl)piperazine-1-carbonyl)benzo[b]thiophen-2-yl)-3-ethylurea] |
| < 5 | < 5 | CCNC(=O)Nc1sc2ccccc2c1C(=O)N1CCN(S(=O)(=O)c2ccc(OC)c(NC(C)=O)c2)CC1 [Example 19, N-(5-(4-(2-(3-ethylureido)benzo[b]thiophene-3-carbonyl)piperazin-1-ylsulfonyl)-2-methoxyphenyl)acetamide] |
| < 5 | < 5 | CCNC(=O)Nc1sc2ccccc2c1C(=O)N1CCN(S(=O)(=O)c2cccc(C(C)=O)c2)CC1 [Example 20, 1-(3-(4-(3-acetylphenylsulfonyl)piperazine-1-carbonyl)benzo[b]thiophen-2-yl)-3-ethylurea] |
| < 5 | < 5 | CCNC(=O)Nc1sc2ccccc2c1C(=O)N1CCN(S(=O)(=O)c2ccc3ncsc3c2)CC1 [Example 21, 1-(3-(4-(benzo[d]thiazol-6-ylsulfonyl)piperazine-1-carbonyl)benzo[b]thiophen-2-yl)-3-ethylurea] |
| < 5 | < 5 | CCNC(=O)Nc1sc2ccccc2c1C(=O)N1CCN(S(=O)(=O)c2ccc(OC)c(OC)c2)CC1 [Example 23, 1-(3-(4-(3,4-dimethoxyphenylsulfonyl)piperazine-1-carbonyl)benzo[b]thiophen-2-yl)-3-ethylurea] |
| < 5 | < 5 | CCNC(=O)Nc1sc2ccccc2c1C(=O)N1CCN(S(=O)(=O)c2ccc(NC(C)=O)cc2)CC1 [Example 24, N-(4-(4-(2-(3-ethylureido)benzo[b]thiophene-3-carbonyl)piperazin-1-ylsulfonyl)phenyl)acetamide] |
